Patent US6642217B2, “Triterpenes having human antifungal and antiyeast activity” (Naturtek, LLC, priority 2000, dated 2003)

Legend:
Trichophyton rubrum [1] = test: Direct addition method, solid compound in Sabouraud dextrose agar; type: cell-based; settings: against Trichophyton rubrum
Experimental: (§1) Direct addition method. Sabouraud dextrose agar was prepared according to the manufacturer's instructions and 5.0 ml was dispensed in each 100×25 mm tube. The tubes were autoclaved. To each tube containing 5.0 ml of liquid agar at 45° C., 20 mg of solid test compound was added, to give a final concentration of 4 mg/ml. The agar was solidified in slants. The fungal cultures were then innoculated. The slants were incubated at 25-28 ° C. for 10-12 days, and the growth of the fungus was recorded every second day. The results in Table 2 indicate growth at the 12th day of inoculation.

Microsporum audouinni [2] = test: as above; type: cell-based, Microsporum audouinii; parameters: key to Fungal growth: +++: Maximum Fungal Growth; ++: Moderate Fungal Growth; +: Minimum Fungal Growth; +/−: Very little Fungal Growth; −: No Fungal Growth; settings: 4 mg/mL of agar; 12th day after inoculation
Procedure, shortened: (§2)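 Presence or absence of fungal growth was noted on alternate days, with the day-12 observation used. Test material, added undissolved to 45° C. Sabouraud dextrose medium to reach 4 mg/ml final, was solidified as slants before inoculation and incubation at 25-28° C.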

Trichophyton rubrum [3] = test: as above; type: cell-based; parameters: key: +++: Maximum Fungal Growth; ++: Moderate Fungal Growth; +: Minimum Fungal Growth; +/−: Very Little Fungal Growth; −: No Fungal Growth; settings: 4 mg/mL of agar; 12th day after inoculation
Experimental: as §1

Pityrosporum ovale [4] = test: Direct addition into the Pityrosporum agar; type: cell-based; parameters: key to Pityrosporum ovale growth: +++: Maximum Growth; ++: Moderate Growth; +: Minimum Growth; +/−: Very Little Growth; −: No Growth; settings: for Pityrosporum ovale growth: 4 mg/ml in the agar, 18 hours after inoculation
Experimental: as §1, with “The slants were incubated at 25-28 ° C. for 10-12 days, and the growth of the fungus was recorded every second day. The results in Table 2 indicate growth at the 12th day of inoculation.” left out

Microsporum canis [5] = test: Direct addition method, solid compound in Sabouraud dextrose agar; type: cell-based; parameters: key: +++: Maximum Fungal Growth; ++: Moderate Fungal Growth; +: Minimum Fungal Growth; +/−: Very little Fungal Growth; −: No Fungal Growth; settings: 4 mg/mL of agar; 12th day after inoculation
Procedure, shortened: as §2

Epidermophyton floccosum [6] = test: as above; type: cell-based; parameters: key: +++: Maximum Fungal Growth; ++: Moderate Fungal Growth; +: Minimum Fungal Growth; +/−: Very little Fungal Growth; −: No Fungal Growth; settings: 4 mg/mL of agar; 12th day after inoculation
Procedure, shortened: as §2

Pityrosporum ovale [7] = test: as above; type: cell-based; parameters: key: +++: Maximum Fungal Growth; ++: Moderate Fungal Growth; +: Minimum Fungal Growth; +/−: Very little Fungal Growth; −: No Fungal Growth; settings: 4 mg/mL of agar; 12th day after inoculation
Procedure, shortened: as §2

Microsporum canis [8] = test: as above; type: cell-based; settings: against Microsporum canis
Experimental: as §1

Trichophyton tonsuran [9] = test: as above; type: cell-based, Trichophyton tonsurans; parameters: key: +++: Maximum Fungal Growth; ++: Moderate Fungal Growth; +: Minimum Fungal Growth; +/−: Very little Fungal Growth; −: No Fungal Growth; settings: 4 mg/mL of agar; 12th day after inoculation
Experimental: as §1

Microsporum gypseum [10] = test: as above; type: cell-based; parameters: key: +++: Maximum Fungal Growth; ++: Moderate Fungal Growth; +: Minimum Fungal Growth; +/−: Very little Fungal Growth; −: No Fungal Growth; settings: 4 mg/mL of agar; 12th day after inoculation
Procedure, shortened: as §2

[11] = system: Trichophyton mentagrophytes; test: as above; type: cell-based; parameters: key: +++: Maximum Fungal Growth; ++: Moderate Fungal Growth; +: Minimum Fungal Growth; +/−: Very little Fungal Growth; −: No Fungal Growth; settings: 4 mg/mL of agar; 12th day after inoculation
Procedure, shortened: as §2

Trichophyton rubrum [12] = test: as above; type: cell-based; parameters: key: +++: Maximum Fungal Growth; ++: Moderate Fungal Growth; +: Minimum Fungal Growth; +/−: Very little Fungal Growth; −: No Fungal Growth; settings: 4 mg/mL of agar; 12th day after inoculation
Procedure, shortened: as §2

[13] = system: Trichophyton mentagrophytes; test: Direct addition to liquid culture method, optical density at 600 nm; type: cell-based; settings: 25, 50 and 100 μg/ml; 12 days
Experimental: Direct addition to liquid culture method. Sabouraud dextrose broth was prepared according to the manufacturer's instructions, and 7.0 ml was dispensed into 100×25 mm tubes and autoclaved. To each tube containing 7.0 ml of liquid broth, the test compounds dissolved in DMSO were added to final concentrations of 25, 50, and 100 μg/ml. The tubes were then inoculated with 150 μl of a fungus suspension and incubated at 25-28° C. for 10-12 days. Growth was measured every second day by measuring optical density at 600 nm against a blank containing sterile broth.

Microsporum audouinni [14] = test: Agar dilution method, growth on Sabouraud dextrose agar slants; type: cell-based, Microsporum audouinii; parameters: key: +++: Maximum Fungal Growth; ++: Moderate Fungal Growth; +: Minimum Fungal Growth; +/−: Very little Fungal Growth; −: No Fungal Growth; settings: 12th day after inoculation
Procedure, shortened: (§3)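 Growth of each dermatophyte was recorded every second day over 10-12 days at 25-28 °C on agar slants. These slants were Sabouraud dextrose agar into which the compound in DMSO had been blended while the agar was liquid at 45 °C.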

[15] = system: Trichophyton mentagrophyte; test: as above; type: cell-based, Trichophyton mentagrophytes; parameters: key to Fungal growth: +++: Maximum Fungal Growth; ++: Moderate Fungal Growth; +: Minimum Fungal Growth; +/−: Very little Fungal Growth; −: No Fungal Growth; settings: 12th day after inoculation
Procedure, shortened: as §3

Microsporum gypseum [16] = test: as above; type: cell-based; parameters: key: +++: Maximum Fungal Growth; ++: Moderate Fungal Growth; +: Minimum Fungal Growth; +/−: Very little Fungal Growth; −: No Fungal Growth; settings: 12th day after inoculation
Procedure, shortened: as §3

Microsporum canis [17] = test: as above; type: cell-based; parameters: key: +++: Maximum Fungal Growth; ++: Moderate Fungal Growth; +: Minimum Fungal Growth; +/−: Very little Fungal Growth; −: No Fungal Growth; settings: 12th day after inoculation
Procedure, shortened: as §3

Trichophyton rubrum [18] = test: as above; type: cell-based; parameters: key: +++: Maximum Fungal Growth; ++: Moderate Fungal Growth; +: Minimum Fungal Growth; +/−: Very little Fungal Growth; −: No Fungal Growth; settings: 12th day after inoculation
Procedure, shortened: as §3

Pityrosporum ovale [19] = test: as above; type: cell-based; parameters: key: +++: Maximum Fungal Growth; ++: Moderate Fungal Growth; +: Minimum Fungal Growth; +/−: Very little Fungal Growth; −: No Fungal Growth; settings: 12th day after inoculation
Procedure, shortened: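 In this agar dilution format, DMSO solutions of compound went into liquid Sabouraud dextrose agar (45 °C), which was slanted and inoculated. Incubation ran 10-12 days at 25-28 °C.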

Trichophyton tonsuran [20] = test: as above; type: cell-based, Trichophyton tonsurans; parameters: key: +++: Maximum Fungal Growth; ++: Moderate Fungal Growth; +: Minimum Fungal Growth; +/−: Very little Fungal Growth; −: No Fungal Growth; settings: 12th day after inoculation
Procedure, shortened: as §3

Epidermophyton floccosum [21] = test: as above; type: cell-based; parameters: key to Fungal growth: +++: Maximum Fungal Growth; ++: Moderate Fungal Growth; +: Minimum Fungal Growth; +/−: Very little Fungal Growth; −: No Fungal Growth; settings: 12th day after inoculation
Procedure, shortened: as §3

Which “best anti-fungal or anti-yeast activity by the direct addition method” value (Trichophyton rubrum [1]) does the source give for `C=C(C)C1CCC2(COC(=O)C(N)C(C)C)CCC3(C)C(CCC4C5(C)CCC(OC(=O)C(N)C(C)C)C(C)(C)C5CCC43C)C12` [Betulin-3,28-di-L-valine] here?
The value was “against Trichophyton rubrum”.

And the Fungal growth (Microsporum audouinni [2])?
Its Fungal growth is “+”.

What about the Fungal growth (Trichophyton rubrum [3]) of the same compound?
The Fungal growth was “+/−”.

And the Pityrosporum ovale growth (Pityrosporum ovale [4])?
The Pityrosporum ovale growth was “+/−”.

And the Fungal growth (Microsporum canis [5])?
Its Fungal growth is “+”.

What about the Fungal growth (Epidermophyton floccosum [6]) of the same compound?
The Fungal growth was “−”.

And the Fungal growth (Pityrosporum ovale [7])?
Its Fungal growth is “−”.

With `C=C(C)[C@@H]1CC[C@]2(COC(=O)/C=C\C(=O)O)CC[C@]3(C)[C@H](CC[C@@H]4[C@@]5(C)CC[C@H](O)C(C)(C)[C@@H]5CC[C@]43C)[C@@H]12` [Betulin-28-maleate] as the compound, how does the “best anti-fungal or anti-yeast activity by the direct addition method” value (Microsporum canis [8]) read?
Its value is “against Microsporum canis”.

What about the Fungal growth (Microsporum audouinni [2]) of the same compound?
Its Fungal growth is “++”.

And the Fungal growth (Trichophyton tonsuran [9])?
The Fungal growth was “++”.

What about the Fungal growth (Microsporum gypseum [10]) of the same compound?
The Fungal growth was “+++”.

What about the Fungal growth [11] of the same compound?
The Fungal growth was “++”.

What about the Fungal growth (Microsporum canis [5]) of the same compound?
Its Fungal growth is “−”.

What about the Fungal growth (Trichophyton rubrum [12]) of the same compound?
The Fungal growth was “++”.

And the Fungal growth (Epidermophyton floccosum [6])?
The Fungal growth was “−”.

What about the Fungal growth (Pityrosporum ovale [7]) of the same compound?
Its Fungal growth is “−”.

For `C=C(C)[C@@H]1CC[C@]2(C)CC[C@@]3(C)C(CCC4[C@@]5(C)CC[C@H](O)C(C)(C)C5CC[C@]43C)C12` (stereo partly drawn) [Lupeol, lup-20(29)-ene-3β-ol], which Fungal growth (Microsporum audouinni [2]) is on record?
Its Fungal growth is “+”.

What about the “Growth inhibition in liquid culture (optical density, FIG. 1)” value [13] of the same compound?
The value was “inhibited the growth”.

And the Pityrosporum ovale growth (Pityrosporum ovale [4])?
Its Pityrosporum ovale growth is “+”.

What about the Fungal growth (Microsporum canis [5]) of the same compound?
Its Fungal growth is “+”.

What about the Fungal growth (Trichophyton rubrum [12]) of the same compound?
The Fungal growth was “+”.

And the Fungal growth (Epidermophyton floccosum [6])?
The Fungal growth was “−”.

And the Fungal growth (Pityrosporum ovale [7])?
The Fungal growth was “−”.

For `C[C@@H]1[C@H](O)[C@@H](C)/C=C/C=C/CC/C=C/C=C/C=C/C=C/C(O[C@H]2O[C@H](C)[C@@H](O)[C@H](N)[C@@H]2O)CC2O[C@](O)(CC(O)C(O)CCC(O)CC(O)CC(O)CC(=O)O[C@H]1C)CC(O)C2C(=O)O` (some centres unmarked) [Nystatin, reference compound], which Fungal growth (Microsporum audouinni [14]; 125 μg/ml) is on record?
The Fungal growth was “−”.

And the Fungal growth (Microsporum audouinni [14]; 250 μg/ml)?
The Fungal growth was “−”.

What about the Fungal growth (Microsporum audouinni [14]; 500 μg/ml) of the same compound?
Its Fungal growth is “−”.

And the Fungal growth (Microsporum audouinni [14]; 1000 μg/ml)?
The Fungal growth was “−”.

And the Fungal growth (Microsporum audouinni [2])?
Its Fungal growth is “−”.

And the Fungal growth ([15]; 125 μg/ml)?
Its Fungal growth is “+”.

And the Fungal growth ([15]; 250 μg/ml)?
The Fungal growth was “+”.

And the Fungal growth ([15]; 500 μg/ml)?
Its Fungal growth is “−”.

What about the Fungal growth ([15]; 1000 μg/ml) of the same compound?
The Fungal growth was “−”.

And the Fungal growth (Microsporum gypseum [16]; 125 μg/ml)?
The Fungal growth was “+”.

What about the Fungal growth (Microsporum gypseum [16]; 250 μg/ml) of the same compound?
Its Fungal growth is “+/−”.

What about the Fungal growth (Microsporum gypseum [16]; 500 μg/ml) of the same compound?
The Fungal growth was “−”.

And the Fungal growth (Microsporum gypseum [16]; 1000 μg/ml)?
Its Fungal growth is “−”.

And the Fungal growth (Microsporum canis [17]; 125 μg/ml)?
The Fungal growth was “+”.

What about the Fungal growth (Microsporum canis [17]; 250 μg/ml) of the same compound?
The Fungal growth was “+/−”.

What about the Fungal growth (Microsporum canis [17]; 500 μg/ml) of the same compound?
Its Fungal growth is “−”.

What about the Fungal growth (Microsporum canis [17]; 1000 μg/ml) of the same compound?
Its Fungal growth is “−”.

And the Fungal growth (Trichophyton rubrum [18]; 125 μg/ml)?
The Fungal growth was “+”.

And the Fungal growth (Trichophyton rubrum [18]; 250 μg/ml)?
The Fungal growth was “+”.

And the Fungal growth (Trichophyton rubrum [18]; 500 μg/ml)?
Its Fungal growth is “+/−”.

And the Fungal growth (Trichophyton rubrum [18]; 1000 μg/ml)?
Its Fungal growth is “−”.

And the Fungal growth (Pityrosporum ovale [19]; 125 μg/ml)?
Its Fungal growth is “+”.

And the Fungal growth (Pityrosporum ovale [19]; 250 μg/ml)?
Its Fungal growth is “+/−”.

What about the Fungal growth (Pityrosporum ovale [19]; 500 μg/ml) of the same compound?
Its Fungal growth is “−”.

And the Fungal growth (Pityrosporum ovale [19]; 1000 μg/ml)?
The Fungal growth was “−”.

What about the Fungal growth (Trichophyton tonsuran [20]; 125 μg/ml) of the same compound?
Its Fungal growth is “+”.

What about the Fungal growth (Trichophyton tonsuran [20]; 250 μg/ml) of the same compound?
Its Fungal growth is “+/−”.

And the Fungal growth (Trichophyton tonsuran [20]; 500 μg/ml)?
Its Fungal growth is “−”.

What about the Fungal growth (Trichophyton tonsuran [20]; 1000 μg/ml) of the same compound?
The Fungal growth was “−”.

And the Fungal growth (Trichophyton rubrum [3])?
The Fungal growth was “+/−”.

What about the Fungal growth (Epidermophyton floccosum [21]; 125 μg/ml) of the same compound?
The Fungal growth was “+/−”.

What about the Fungal growth (Epidermophyton floccosum [21]; 250 μg/ml) of the same compound?
Its Fungal growth is “−”.

And the Fungal growth (Epidermophyton floccosum [21]; 500 μg/ml)?
The Fungal growth was “−”.

What about the Fungal growth (Epidermophyton floccosum [21]; 1000 μg/ml) of the same compound?
Its Fungal growth is “−”.

And the “Growth inhibition of Pityrosporum ovale by the direct addition method” value (Pityrosporum ovale [4]; 4 mg/ml)?
Its value is “inhibits growth”.

What about the Pityrosporum ovale growth (Pityrosporum ovale [4]) of the same compound?
The Pityrosporum ovale growth was “+/−”.

And the Fungal growth (Microsporum canis [5])?
Its Fungal growth is “−”.

What about the Fungal growth (Epidermophyton floccosum [6]) of the same compound?
The Fungal growth was “−”.

What about the Fungal growth (Pityrosporum ovale [7]) of the same compound?
Its Fungal growth is “−”.
